Measurements reported in patent publication US4328359A, “15-Deoxy-16-substituted-19-chloro-20-nor-prostane derivatives of the E and F series” (American Cyanamid Company, priority 1981, dated 1982).

Key:
Type in all cases: in vivo
[1] = system: bronchospasms elicited by intravenous injections of acetylcholine; assay: Konzett procedure: bronchodilator activity in Guinea-Pigs, acetylcholine-induced bronchospasm; conditions: Cavia porcellus, spasmogen acetylcholine, three logarithmic cumulative intravenous doses
Method: (§1) The bronchodilator activity for representative compounds of this invention was determined in Guinea-Pigs against bronchospasms elicited by intravenous injections of serotonin, histamine, and acetylcholine, by the Konzett procedure, the details of which are those discussed by J. Lulling, P. Lievens, F. El Sayed and J. Prignot, Arzeimittel-Forschung 18, 995 (1968).
(§2) In the table which follows, bronchodilator activity for representative compounds of the invention against spasmogenic agents serotonin, histamine, and acetylcholine is expressed as an ED50 determined from the results obtained with three logarithmic cumulative intravenous doses.

[2] = system: bronchospasms elicited by intravenous injections of histamine; assay: Konzett procedure: bronchodilator activity in Guinea-Pigs, histamine-induced bronchospasm; conditions: Cavia porcellus, spasmogen histamine, three logarithmic cumulative intravenous doses
Method: as §1, §2

[3] = system: bronchospasms elicited by intravenous injections of serotonin; assay: Konzett procedure: bronchodilator activity in Guinea-Pigs, serotonin-induced bronchospasm; conditions: Cavia porcellus, spasmogen serotonin, three logarithmic cumulative intravenous doses
Method: as §1, §2

O=C(O)CCC/C=C\C[C@H]1C(=O)C[C@@H](O)[C@@H]1/C=C/CC(O)CCCCl (relative stereo) [dl 11α,16-dehydroxy-9-oxo-19-chloro-20-nor-5-cis,13-trans prostadienoic acid]
ED50 [1]: 6.8 µg/kg | ED50 [2]: 4.4 µg/kg | ED50 [3]: 4.65 µg/kg
